Active and inactive are the calls of the source. The rule behind the calls is not given here.
Experiments:
[1] = tested on: 3T3-L1; experiment: Anti-adipogenic activity in mouse 3T3-L1 preadipocytes assessed as decrease in adipocyte numbers at 20 uM measured after 7 days by Oil Red O staining based inverted phase contrast microscopic analysis; format: functional, cell-based; settings: time 7.0 day
[2] = tested on: Mesenchymal stem cells; experiment: Anti-adipogenic activity in human derived bone marrow derived Mesenchymal stem cells assessed as reduction in PPARgamma expression at 20 uM measured after 7 days by Western blot analysis; format: functional, cell-based; settings: time 7.0 day
[3] = tested on: Mesenchymal stem cells; experiment: Anti-adipogenic activity in human derived bone marrow mesenchymal stem cells assessed as reduction in […] release measured after 21 days by flow cytometry analysis; format: functional, cell-based; settings: time 21.0 day
[4] = tested on: Mesenchymal stem cells; experiment: Anti-adipogenic activity against human bone marrow derived Mesenchymal stem cells assessed as downregulation of C/EBPalpha mRNA expression at 20 uM measured after 7 days by qRT-PCR analysis; format: functional, cell-based; settings: time 7.0 day
[5] = tested on: Mesenchymal stem cells; experiment: Inhibition of lipid droplet accumulation in human bone marrow derived Mesenchymal stem cells at 5 to 20 uM incubated for 21 days by Oil red o staining based microplate reader analysis; format: functional, cell-based; settings: dose 5-20 µM, time 21.0 day
[6] = tested on: Mesenchymal stem cells; experiment: Anti-adipogenic activity against human bone marrow derived Mesenchymal stem cells assessed as downregulation of C/EBPbeta mRNA expression at 20 uM measured after 7 days by qRT-PCR analysis; format: functional, cell-based; settings: time 7.0 day
[7] = tested on: Mesenchymal stem cells; experiment: Anti-adipogenic activity against human bone marrow derived Mesenchymal stem cells assessed as downregulation of PPARG mRNA expression at 20 uM measured after 7 days by qRT-PCR analysis; format: functional, cell-based; settings: time 7.0 day
[8] = tested on: Mesenchymal stem cells; experiment: Anti-adipogenic activity in human derived bone marrow mesenchymal stem cells assessed as glycerol release at 5 uM incubated for 12 hrs by colorimetric analysis relative to control; format: functional
[9] = tested on: Mesenchymal stem cells; experiment: Upregulation of adipsin level in human bone marrow derived mesenchymal stem cells at 5 to 20 uM measured after 48 hrs by flow cytometric analysis; format: functional, cell-based; settings: dose 5-20 µM
[10] = tested on: Mesenchymal stem cells; experiment: Anti-adipogenic activity in human derived bone marrow mesenchymal stem cells assessed as reduction in adiponectin release measured after 21 days by flow cytometry analysis; format: functional, cell-based; settings: time 21.0 day
[11] = tested on: Mesenchymal stem cells; experiment: Anti-adipogenic activity in human derived bone marrow mesenchymal stem cells assessed as glycerol release at 20 uM incubated for 12 hrs by colorimetric analysis relative to control; format: functional
[12] = tested on: Mesenchymal stem cells; experiment: Downregulation of IL8 level in human bone marrow derived mesenchymal stem cells at 5 to 20 uM measured after 48 hrs by flow cytometric analysis; format: functional, cell-based; settings: dose 5-20 µM
[13] = tested on: Mesenchymal stem cells; experiment: Anti-adipogenic activity against human bone marrow derived Mesenchymal stem cells assessed as downregulation of SREBP-1c mRNA expression at 20 uM measured after 7 days by qRT-PCR analysis; format: functional, cell-based; settings: time 7.0 day
[14] = tested on: Mesenchymal stem cells; experiment: Cytotoxicity against human bone marrow derived Mesenchymal stem cells assessed as reduction in cell viability at 1 to 20 uM incubated for 1 to 10 days by MTT assay; format: toxicity, cell-based; settings: dose lower 1 µM, time lower 1 day, dose upper 20 µM, time upper 10 day
[15] = tested on: Mesenchymal stem cells; experiment: Anti-adipogenic activity in human derived bone marrow mesenchymal cells assessed as downregulation of LPL mRNA expression at 10 to 20 uM measured on day 21 by qRT-PCR analysis; format: functional, cell-based; settings: dose 10-20 µM, time 21.0 day
[16] = tested on: Mesenchymal stem cells; experiment: Anti-adipogenic activity in human bone marrow derived Mesenchymal stem cells assessed as reduction in adipocyte count at 5 to 20 uM after 21 days by Oil Red O staining based inverted phase contrast microscopic analysis; format: functional, cell-based; settings: dose 5-20 µM, time 21.0 day
[17] = tested on: Mesenchymal stem cells; experiment: Downregulation of MCP-1 level in human bone marrow derived mesenchymal stem cells at 5 to 20 uM measured after 48 hrs by flow cytometric analysis; format: functional, cell-based; settings: dose 5-20 µM
[18] = tested on: Mesenchymal stem cells; experiment: Anti-adipogenic activity in human derived bone marrow mesenchymal cells assessed as downregulation of GLUT4 mRNA expression at 10 to 20 uM measured on day 21 by qRT-PCR analysis; format: functional, cell-based; settings: dose 10-20 µM, time 21.0 day
[19] = tested on: Mesenchymal stem cells; experiment: Downregulation of RBP4 level in human bone marrow derived mesenchymal stem cells at 5 to 20 uM measured after 48 hrs by flow cytometric analysis; format: functional, cell-based; settings: dose 5-20 µM
[20] = tested on: Mesenchymal stem cells; experiment: Anti-adipogenic activity in human derived bone marrow mesenchymal stem cells assessed as glycerol release at 10 uM incubated for 12 hrs by colorimetric analysis relative to control; format: functional
[21] = tested on: Mesenchymal stem cells; experiment: Inhibition of lipid droplet accumulation in human bone marrow derived Mesenchymal stem cells at 10 to 20 uM by Oil red o staining based microplate reader analysis; format: functional, cell-based; settings: dose 10-20 µM
[22] = tested on: Mesenchymal stem cells; experiment: Antidiabetic activity in human bone marrow mesenchymal stem cells assessed as glucose uptake by measuring 2-DG6P level at 15 to 20 uM by glucose uptake assay; format: functional, cell-based; settings: dose 15-20 µM
[23] = tested on: Mesenchymal stem cells; experiment: Downregulation of IL6 level in human bone marrow derived mesenchymal stem cells at 5 to 20 uM measured after 48 hrs by flow cytometric analysis; format: functional, cell-based; settings: dose 5-20 µM
[24] = tested on: Mesenchymal stem cells; experiment: Upregulation of adiponectin level in human bone marrow derived mesenchymal stem cells at 5 to 20 uM measured after 48 hrs by flow cytometric analysis; format: functional, cell-based; settings: dose 5-20 µM
[25] = tested on: Mesenchymal stem cells; experiment: Anti-adipogenic activity in human derived bone marrow mesenchymal cells assessed as downregulation of FABP4 mRNA expression at 10 to 20 uM measured on day 21 by qRT-PCR analysis; format: functional, cell-based; settings: dose 10-20 µM, time 21.0 day
[26] = tested on: Mesenchymal stem cells; experiment: Anti-adipogenic activity in human derived bone marrow derived Mesenchymal stem cells assessed as downregulation of C/EBPalpha protein expression at 20 uM measured after 7 days by western blot analysis; format: functional, cell-based; settings: time 7.0 day
[27] = tested on: Mesenchymal stem cells; experiment: Anti-adipogenic activity in human derived bone marrow mesenchymal stem cells assessed as reduction in adipsin release measured after 21 days by flow cytometry analysis; format: functional, cell-based; settings: time 21.0 day

COC(=O)C1=CO[C@@H](OC)[C@@H]2C(Cn3cc(C4(O)CCCCC4)nn3)=CC[C@H]12
Activity [1]: Active

COC(=O)C1=CO[C@@H](O)[C@@H]2C(CO)=CC[C@H]12
Activity [1]: Active

COC(=O)C1=CO[C@@H](OC)[C@@H]2C(Cn3cc(-c4ccccc4)nn3)=CC[C@H]12
Activity [1]: Active

COC(=O)C1=CO[C@@H](OC)[C@@H]2C(Cn3cc(COc4ccc5ccc(=O)oc5c4)nn3)=CC[C@H]12
Activity [1]: Active

COC(=O)C1=CO[C@@H](OC)[C@@H]2C(Cn3cc(COCCc4ccccc4)nn3)=CC[C@H]12
Activity [1]: Active

CCCCCCCCCCCCCCCCCCOCc1cn(CC2=CC[C@@H]3C(C(=O)OC)=CO[C@@H](OC)[C@H]23)nn1
Activity [1]: Active

COC(=O)C1=CO[C@@H](OC)[C@@H]2C(Cn3cc(C(O)(c4ccccc4)c4ccccc4)nn3)=CC[C@H]12
Activity [1]: Active

COC(=O)C1=CO[C@@H](OC)[C@@H]2C(Cn3cc(COCc4ccccc4)nn3)=CC[C@H]12
Activity [1]: Active

COC(=O)C1=CO[C@@H](OC)[C@@H]2C(Cn3cc(COCc4ccc(OC)c(OC)c4)nn3)=CC[C@H]12
Activity [1]: Active

COC(=O)C1=CO[C@@H](OC)[C@@H]2C(Cn3cc(COCc4cc(OC)ccc4OC)nn3)=CC[C@H]12
Activity [1]: Active

COC(=O)C1=CO[C@@H](OC)[C@@H]2C(Cn3cc(COc4cc(C=O)ccc4OC)nn3)=CC[C@H]12
Activity [1]: Active

COC(=O)C1=CO[C@@H](OC)[C@@H]2C(Cn3cc(CCBr)nn3)=CC[C@H]12
Activity [1]: Active

COC(=O)C1=CO[C@@H](OC)[C@@H]2C(Cn3cc(CCCOC(c4ccccc4)(c4ccccc4)c4ccccc4)nn3)=CC[C@H]12
Activity [2]: Active | Activity [3]: Active | Activity [4]: Active | inhibition [5]: Active | Activity [6]: Active | Activity [1]: Active | Activity [7]: Active | Activity [8]: 17% | Activity [9]: Active | Activity [10]: Active | Activity [11]: 33% | Activity [12]: Active | Activity [13]: Active | Activity [14]: Non-Toxic | Activity [15]: Active | Activity [16]: Active | Activity [17]: Active | Activity [18]: Active | Activity [19]: Active | Activity [20]: 25% | inhibition [21]: Active | Activity [22]: Active | Activity [23]: Active | Activity [24]: Active | Activity [25]: Active | Activity [26]: Active | Activity [27]: Active
